The NIST ThermoML archive (doi:10.1007/s10765-005-8089-2)

Experiment: xn = mol fraction of the nth substance listed
Conditions: Liquid, Falling or rolling sphere viscometry

Cc1ccccc1 [toluene] + CCO
viscosity [mPa·s]
Conditions	x2 = 0.125	x2 = 0.25	x2 = 0.375	x2 = 0.5	x2 = 0.625	x2 = 0.75	x2 = 0.875
313.15 K, 100000 kPa	–	–	–	–	1.058	1.145	1.255
333.15 K, 100 kPa	0.37	0.373	0.385	0.405	0.431	0.468	0.523
333.15 K, 20000 kPa	0.433	0.437	0.45	0.47	0.501	0.544	0.603
333.15 K, 40000 kPa	0.499	0.503	0.518	0.54	0.573	0.621	0.684
333.15 K, 60000 kPa	0.568	0.571	0.588	0.611	0.647	0.697	0.763
333.15 K, 80000 kPa	0.639	0.643	0.662	0.686	0.724	0.776	0.844
333.15 K, 100000 kPa	0.714	0.718	0.739	0.763	0.804	0.856	0.926
353.15 K, 100 kPa	0.306	–	–	–	–	–	–
353.15 K, 20000 kPa	0.358	0.356	0.361	0.372	0.39	0.415	0.453
353.15 K, 40000 kPa	0.412	0.411	0.417	0.427	0.446	0.476	0.516
353.15 K, 60000 kPa	0.468	0.467	0.474	0.484	0.504	0.536	0.577
353.15 K, 80000 kPa	0.526	0.525	0.532	0.541	0.564	0.597	0.64
353.15 K, 100000 kPa	0.588	0.586	0.593	0.601	0.625	0.66	0.703
